Assay results reported in ChEMBL document CHEMBL1201862, “PubChem BioAssay data set” (2004).
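All cell lines were grown in 96-well plates and treated with compound for 48 hours. At the GI50, growth is halved.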 Activity calls are given as the source filed them. Rule as the data show it: active = GI50 up to about 1.1 µM and inactive = higher.

What was measured:
Assay in all cases: NCI-60 cell line screen, 48 h
[1] = tested on: 786-0
[2] = tested on: A498
[3] = tested on: A549
[4] = tested on: ACHN
[5] = tested on: BT-549
[6] = tested on: CAKI-1
[7] = tested on: CCRF-CEM
[8] = tested on: COLO 205
[9] = tested on: DLD-1
[10] = tested on: DMS-114
[11] = tested on: DMS-273
[12] = tested on: DU-145
[13] = tested on: EKVX
[14] = tested on: HCC 2998
[15] = tested on: HCT-116
[16] = tested on: HCT-15
[17] = tested on: HL-60
[18] = tested on: HOP-18
[19] = tested on: HOP-62
[20] = tested on: HOP-92
[21] = tested on: HT-29
[22] = tested on: Hs-578T
[23] = tested on: IGROV-1
[24] = tested on: K562
[25] = tested on: KM-20L2
[26] = tested on: KM12
[27] = tested on: LOX IMVI
[28] = tested on: LXFL 529
[29] = tested on: M14
[30] = tested on: M19-MEL
[31] = tested on: MCF7
[32] = tested on: MDA-MB-231
[33] = tested on: MDA-MB-435
[34] = tested on: MDA-N
[35] = tested on: MOLT-4
[36] = tested on: Malme-3M
[37] = tested on: NCI-H226
[38] = tested on: NCI-H23
[39] = tested on: NCI-H460
[40] = tested on: NCI-H522
[41] = tested on: NCI/ADR-RES
[42] = tested on: OVCAR-3
[43] = tested on: OVCAR-4
[44] = tested on: OVCAR-5
[45] = tested on: OVCAR-8
[46] = tested on: PC-3
[47] = tested on: RPMI-8226
[48] = tested on: RXF 393
[49] = tested on: SF-268
[50] = tested on: SF-295
[51] = tested on: SF-539
[52] = tested on: SK-MEL-2
[53] = tested on: SK-MEL-5
[54] = tested on: SK-OV-3
[55] = tested on: SN12C
[56] = tested on: SNB-19
[57] = tested on: SNB-75
[58] = tested on: SNB-78
[59] = tested on: SR
[60] = tested on: SW-620
[61] = tested on: T47D
[62] = tested on: TK-10
[63] = tested on: U-251
[64] = tested on: UACC-257
[65] = tested on: UACC-62
[66] = tested on: UO-31
[67] = tested on: XF498

`c1ccc2c(NCCCCCCNc3c4ccccc4nc4ccccc34)c3ccccc3nc2c1` was tested, and the GI50 [1] was 232 nM (active), the GI50 [2] was 1250 nM (inactive) and the GI50 [3] was 290 nM (active). For the same compound, the GI50 [4] was 230 nM (active), the GI50 [5] was 1500 nM (inactive) and the GI50 [6] was 1530 nM (inactive). For the same compound, the GI50 [7] was 47.1 nM (active), the GI50 [8] was 235 nM (active) and the GI50 [9] was 291 nM (active). For the same compound, the GI50 [10] was 366 nM (active), the GI50 [11] was 21.4 nM (active) and the GI50 [12] was 632 nM (active). For the same compound, the GI50 [13] was 367 nM (active), the GI50 [14] was 171 nM (active) and the GI50 [15] was 39.2 nM (active). The GI50 [16] was 4340 nM, the GI50 [17] was 250 nM (active) and the GI50 [18] was 2910 nM (inactive). For the same compound, the GI50 [19] was 206 nM (active), the GI50 [20] was 240 nM (active) and the GI50 [21] was 28.7 nM (active). The GI50 [22] was 682 nM (active), the GI50 [23] was 166 nM (active) and the GI50 [24] was 64.9 nM (active). The GI50 [25] was 78.5 nM (active), the GI50 [26] was 215 nM (active) and the GI50 [27] was 105 nM (active). For the same compound, the GI50 [28] was 155 nM (active), the GI50 [29] was 1230 nM (inactive) and the GI50 [30] was 1090 nM (active). The GI50 [31] was 155 nM (active), the GI50 [32] was 80 nM (active) and the GI50 [33] was 887 nM (active). For the same compound, the GI50 [34] was 288 nM (active), the GI50 [35] was 14.9 nM (active) and the GI50 [36] was 1170 nM (inactive). The GI50 [37] was 587 nM (active), the GI50 [38] was 274 nM (active) and the GI50 [39] was 63.1 nM (active). The GI50 [40] was 89.3 nM (active), the GI50 [41] was 17900 nM (inactive) and the GI50 [42] was 277 nM (active). For the same compound, the GI50 [43] was 429 nM (active), the GI50 [44] was 130 nM (active) and the GI50 [45] was 289 nM (active). For the same compound, the GI50 [46] was 445 nM (active), the GI50 [47] was < 35.8 nM (active) and the GI50 [48] was 191 nM (active). For the same compound, the GI50 [49] was 560 nM (active), the GI50 [50] was 281 nM (active) and the GI50 [51] was 108 nM (active). The GI50 [52] was 1260 nM (inactive), the GI50 [53] was 1400 nM (inactive) and the GI50 [54] was 1010 nM (active). The GI50 [55] was 137 nM (active), the GI50 [56] was 649 nM (active) and the GI50 [57] was 713 nM (active). The GI50 [58] was 498 nM (active), the GI50 [59] was 28.8 nM (active) and the GI50 [60] was 45.8 nM (active). The GI50 [61] was 647 nM (active), the GI50 [62] was 1340 nM (inactive) and the GI50 [63] was 276 nM (active). For the same compound, the GI50 [64] was 2700 nM (inactive), the GI50 [65] was 695 nM (active) and the GI50 [66] was 11300 nM (inactive). The GI50 [67] was 1410 nM (inactive).
